Reference: paper PMC11520585 (BMC Neuroscience, 2024)

How the values were obtained:
C. elegans [1] = conditions: in vivo
C. elegans [2] = conditions: in vivo; remark: listed apart in the source
Opioid receptors (KOR) = conditions: read-out: Ki, Opioid receptors (KOR); competitive radioligand binding; cited from earlier work
[3] = biological target: GluN1/GluN2A subtype receptors; conditions: read-out: mean IC50, GluN1/GluN2A; cited from earlier work
[4] = biological target: GluN1/GluN2B subtype receptors; conditions: read-out: mean IC50, GluN1/GluN2B; cited from earlier work
Sigma2 receptor = conditions: read-out: Ki, Sigma2 receptor; competitive radioligand binding; cited from earlier work
[5] = tested on: organotypic hippocampal slice cultures; test: organotypic hippocampal slice culture neuroprotection assay; format: cell-based, rat; conditions: ZA-II-05 100 µM, NMDA 10 µM insult, P < 0.05
[6] = tested on: vanadium-induced neurotoxicity; conditions: vanadium-exposed mice; cited from earlier work
µ-opioid receptors (MOR) = conditions: read-out: Ki, µ-opioid receptors (MOR); competitive radioligand binding; cited from earlier work
[7] = tested on: maximal electroshock seizures; conditions: 100 and 300 mg/kg (i.p.); cited from earlier work
C. elegans [8] = format: in vivo; conditions: ZA-II-05 1 mg/ml treated groups, 24 h
C. elegans [9] = format: in vivo; conditions: ZA-II-05 1 mg/ml treated groups, 24 h; remark: listed apart in the source

Structure (SMILES): Fc1ccc(C2(NCCCOC3CCCCO3)CC3CCC2C3)cc1 (stereo not drawn) [ZA-II-05, 2-[4-Fluorophenyl]-N-(3-[tetrahydro-2H-pyran-2-yloxy]propyl) bicyclo [2.2.1] heptan-2-amine]
- mitochondrial superoxide (MitoSOX fluorescence), effect on vanadium-induced ROS (C. elegans [1]): alleviated
- growth pattern (body length, body wall) (C. elegans [2]): reversed this effect
- Ki (Opioid receptors (KOR)): 361 nM
- IC50 [3]: 518 nM
- IC50 [4]: 430 nM
- Ki (Sigma2 receptor): 5.5 nM
- neuroprotection (propidium iodide fluorescence intensity vs NMDA group) [5]: significant neuroprotective effect
- protection against neuronal damage [6]: considerable protection against neuronal damage
- Ki (µ-opioid receptors (MOR)): 3040 nM
- activity in maximal electroshock seizure (MES) assessment [7]: activity
- nuclei in ventral nerve cord (DAPI) (C. elegans [8]): preserved the nucleus
- mitochondrial density (fluorescence intensity) (C. elegans [9]): dense presence of mitochondria
